Measurements published in patent publication EP1002537A1, “Use of melarsoprol for the manufacture of a medicament for treating B-cell lymphoproliferative diseases, such as multiple myeloma” (ASSISTANCE PUBLIQUE, HOPITAUX DE PARIS, priority 1998, dated 2000).

Legend:
leukemia = settings: IV daily for 3 days, repeated weekly for 3 weeks, 1 to 3,6mg/kg; cited from earlier work
[1] = system: T, myeloid and epithelial cell lines; test: Comparative example: growth of other hematopoietic cell types; format: cell-based
Experimental: (§1) The human myeloma cell lines were purchased from DMS (Braunschweig, Germany) (NCI H929 and LP1) and from American Type Culture Collections (Rockville, MD) (OPM2 and U266). NCI, OPM2, U266 (and all studied non plasmacytic cell lines) were cultured in RPMI 1640 supplemented with 1% penicillin/streptomycin, 1 mmol/L L-glutamine and 10% heat-inactivated fetal calf serum at 37°C, 5% CO2 in air. LP1 cells were cultured in similar conditions, in Iscove's medium.
(§2) Cells were incubates with or without 10^-5 to 10^-8 mol/L melarsoprol up to 96 hours, without any adjustment after culture initiation. Cell number and viability were determined by trypan blue exclusion. Morphologic analysis was performed using Wright-Giema and DAPI (4'-6-diamidino-2-phenylindole) staining on cytocentrifuge preparations. For proliferation assays, aliquots of 2x10^4 cells in triplicate were incubated in 96-well plates and 3H-thymidine (3H-TdR) (1 µCi) was added for the final 8 hours of the culture period. Cells were harvested onto glass filter and ^3H-TdR incorporation was counted on a liquid scintillation counter.
In addition to plasma cell, other hematopoietic cell types were also studied. The inhibition of growth was marginal in T, myeloid and epithelial cell lines.

human myeloma cells = test: SCID mice transplanted with human myeloma cells: efficacy; format: in vivo; settings: 30µg/g 5 days a week IP, 30 to 40 days
Experimental: The following studies of melarsoprol conducted in SCID mice transplanted with human myeloma cells confirm in vivo the in vitro effects of the arsenical compound.
(§3) SCID mice were irradiated before the intra-peritoneal (IP) injection of 3 to 5*10^6 plasma cells purified from peripheral blood of patients with plasma cell leukemia. Engrafment was assessed by bi-monthly measurement of the human monoclonal immunoglobulin (HuMIg) concentration in mouse serum, using an ELISA.
Mice injected with the cells from 3 different patients developed the human tumor and were treated with melarsoprol during 30 to 40 days.

[2] = SCID mice transplanted with human myeloma cells: toxicity and arsenic amounts; format: in vivo; settings: any studied organ, especially the liver
Experimental: as §3
Arsenic amounts in mouse serum and tissues were in the expected 〈〈 pharmacological 〉〉 range.

U266 cells = test: FACS analysis after annexin-V and propidium iodide staining; format: cell-based, human; settings: 10^-6 mol/L, 18-hour culture
Experimental: (§4) Direction of phosphatidylserine on the outer leaflet of apoptotic cells was performed using Annexin-V-FLUOS (Boehringer Mannheim, Germany) and propidium iodide (PI) according to the manufacturer's recommendations. Expression of cell surface CD38, CD138 (BB-4° and CD15 antigens was studied using corresponding fluorescein isothiocyanate (FITC) or phycierythrin conjugated antibodies that were purchased from Diaclone (Besançon, France) and Becton Dickinson (San Jose, Ca.). Flow cytometry was performed with a FACSean apparatus (Beckton Dickinson).
(§5) FACS analysis of NCI and U266 cells after staining with fluorescein-labelled annexin-V and propidium iodide was performed to detect the translocation of phosphatidylserine from the inner part of plasma membrane to the outer layer which accurs in the early stages of apoptosis. Before staining, cells were cultivated with medium alone) melarsoprol (10^-6 mol/L) or dexamethasone (Dex, 10^-6 mol/L) over a time period of 48 hours. […] During the same time; the number of double positive necrotic cells increased and, at 18 hours, only very few double-negative living cells were detectable. Apoptosis was moderate in cells cultured with Dex and in control culture. Annexin-positive, PI-negative apoptotic U266 cells were also observed in the presence of melarsoprol (18% of residual cells after a 18-hour culture).

NCI cells [3] = test: as above; format: cell-based, human; settings: 10^-6 mol/L
Experimental: as §4, §5

[4] = system: plasma-cell enriched preparations of myeloma patients; test: Viability (trypan blue exclusion) of fresh myeloma cells; format: cell-based, human; settings: 48 hours, n=4 (40 to 77.5%); 10.5 ± 14.7% without the drug
Source text: (§6) Eleven patients with multiple myeloma (MM) or plasma cell leukemia (PCL) were studied after informed consent. Mononuclear cells were separated by Ficoll-Hypaque centrifugation from peripheral blood of 4 patients with PCL (including 2 with a primary PCL), from bone marrow (BM) of 6 patients with MM (including 4 at diagnosis) and from the pleural effusion of a newly diagnosed myeloma patient. Plasma cell-enriched preparations were obtained by centrifugation of mononuclear cells on a Percoll gradient, as previously described (Iwato K, et al, Blood 72:562, 1988). Plasma cell percentages were determined after intracytoplasmic staining using fluorescein-conjugated antibodies to human immunoglobulin (Ig) heavy and light chains (from Nordic, Tilburg, The Netherlands).Short-term cultures of blood and BM mononuclear cells and of plasma cell-enriched preparations were performed in RPMI 1640, in similar conditions as cell lines.
as §2, with “For proliferation assays, aliquots of 2x10^4 cells in triplicate were incubated in 96-well plates and 3H-thymidine (3H-TdR) (1 µCi) was added for the final 8 hours of the culture period.” left out, “counter. […]” for “counter.”

LP1 cells [5] = test: Cell survival by trypan blue exclusion; format: cell-based, human; settings: LP1, after 48 hours, 10-6 mol/L melarsoprol
Experimental: as §1, §2
(§7) Treatment of plasma cell lines with melarsoprol led to a dose- and time dependent inhibition of cell survival, as determined using trypan blue exclusion. After 48 hours, in the presence of 10-6 mol/L melarsoprol , percentage of trypan blue negative cells were 15 ± 7.2, 56 ± 11, 62 ± 5 8, and 81 ± 6.8% in NCI, OPM2, U266 and LP1 cells, respectively. Cell death was mainly due to apoptosis, as shown by the characteristic morphological changes in nuclei as well as by the TUNEL method.

OPM2 = test: Cell survival by trypan blue exclusion; format: cell-based, human; settings: OPM2, after 48 hours, 10-6 mol/L melarsoprol
Experimental: as §1, §2, §7

NCI = test: Cell survival by trypan blue exclusion; format: cell-based, human; settings: after 48 hours, 10-6 mol/L melarsoprol
Experimental: as §1, §2, §7

[6] = system: secreting multiple myeloma; test: Bi-central, open, non-comparative study in patients with secreting multiple myeloma; format: in vivo; settings: IV 1mg/kg first day, then 2mg/kg daily, not longer than 56 days
Experimental: A bi-central, open, non-comparative study of melarsoprol in patients suffering from secreting multiple myeloma was carried out.
Patients with secreting multiple myeloma included in the study had been pretreated with and were unresponsive to a minimum of 3 VAD (vincristine-adriamycine-dexamethasone) or VAMP (vincristine-adriamycine-methylprednisolone) chemotherapy regimens.
Patients are treated daily with co-administration of anti-convulsive and B1 vitamin for 56 days if allowed by toxicity.
At the first day, the IV solution of melarsoprol (1mg/kg) is administered in 3 intravenous injections.
The IV solution of melarsoprol (2mg/kg) is then administered daily and for a time period not longer than 56 days in the same manner. […]

[7] = system: Mononuclear cells purified from peripheral blood of normal donors; test: Pokeweed mitogen (PWM)-induced plasma cell differentiation of normal lymphocytes; format: cell-based, human; settings: 10^-6 mol/L and 5 x10^-7 mol/L
Experimental: Mononuclear blood cells of 3 normal donors were cultured in the presence of PWM (from Life Technology, Cergy Pontoise, diluted at 1/100) and melarsoprol (5 x 10^-7 or 10^-6 mol/L). Plasma cells were numerated at day 7 after immunofluorescence staining with fluorescein-conjugated antibodies directed against human Ig chains, IgM concentrations in supernatants were also measured at day 5, by ELISA, as previously described (Grillot-Courvalin C et al, Scand. J. Immunol. 23:679, 1986).
Mononuclear cells purified from peripheral blood of normal donors were incubated with pokeweed mitogen in the presence of two different concentrations (10^-6 mol/L and 5 x10^-7 mol/L) of the organic or of the inorganic arsenical.

[8] = system: myeloid cells (CD38^low, CD15 +); test: FACS analysis of patients' bone marrow mononuclear cells (annexin V with CD38 or CD15); format: cell-based, human
Source text: as §6, §4
(§8) To comparatively assess the effects of melarsoprol on myeloid and plasma cells, bone marrow mononuclear cells obtained from patients with newly diagnosed multiple myeloma were cultured for 5 days in the presence of 10^-6 mol/L melarsoprol. […] Indeed, in a representative study a bone marrow sample initiality containing 30% of plasma cells (CD38^higt +), 12% of the latter expressed annexin V after 2 days of culture with 10^-6 mol/L melarsoprol, whereas less than 1% of myeloid cells (CD38^low, CD15 +) were positive for the apoptosis marker. At day 5, the plasma cell number had much more decreased than the myeloid cell number and viable cells (propidium iodide negative) contained 7.8 % of CD38^higt positive cells, as compared to 22.5 % in control culture, performed with medium alone. CD15+ myelo-monocytic cell percentages were similar in arsenic-exposed cultures and in controls, with a decrease in the CD15^low+ fraction.

[9] = system: plasma cells (CD38^higt +); test: as above; format: cell-based, human
Source text: as §6, §4, §8

LP1 cells [10] = test: Growth inhibition of plasma cell line (cell count and thymidine incorporation); format: cell-based, human
Experimental: as §1, §2
(§9) The growth of NCI, U266, OPM2 and LP1 plasma cell lines in medium alone or in the presence of melarsoprol (10^-5 to 10^-8 mol/L) was assessed by cell count and thymidine incorporation.

NCI cells [11] = test: as above; format: cell-based, human
Experimental: as §1, §2, §9

U266 = test: as above; format: cell-based, human; settings: U266 cells
Experimental: as §1, §2, §9

OPM2 cells = test: as above; format: cell-based, human
Experimental: as §1, §2, §9

[12] = system: plasma-cell enriched preparations of myeloma patients; test: Growth (3H TdR uptake) of fresh myeloma cells; format: cell-based; settings: Homo sapiens; three plasma-cell preparations; read-out: IC50 (inhibition of cell growth)
Source text: as §6
as §2, with “For proliferation assays, aliquots of 2x10^4 cells in triplicate were incubated in 96-well plates and 3H-thymidine (3H-TdR) (1 µCi) was added for the final 8 hours of the culture period.” left out, “counter. […]” for “counter.”

myeloma cells = test: Growth and survival of myeloma cells (summary statement); format: cell-based, human
Source text: According to the present invention, melarsoprol reduces the growth and survival of myeloma cells by triggering programmed cell death.
This supports the clinical efficacy of the melarsoprol in patients with multiple myeloma. Indeed, melarsoprol is active at concentrations ranging from 10^-6 to 10^-8 mol/L, which correspond to the in vivo pharmacological concentrations of the drugs.

NCI cells [13] = test: DNA fragmentation by agarose gel electrophoresis of genomic DNA; format: cell-based, human; settings: NCI cells treated with 10^-6 mol/L
[14] = 2 days of culture, 10^-6 mol/L, representative bone marrow sample

Nc1nc(N)nc(Nc2ccc([As]3SCC(CO)S3)cc2)n1 (stereo not drawn) [melarsoprol, 2-p-[(4,6-diamino-s-triazin-2-yl)amino]phenyl-4-hydroxymethyl-1,3,2-dithiarsoline]
CNS toxicity (leukemia): excessive CNS (central nervous system) toxicity
anti-leukemic activity (leukemia): no major anti-leukemic activity
inhibition of growth [1]: marginal
remissions (human myeloma cells; all evaluable experiment): remissions have been achieved
level of the HuMIg in mouse serum (human myeloma cells; undetectable in some animals): dramatic decrease
toxic lesions in studied organs [2]: no evidence of toxic lesions
Annexin-positive, PI-negative apoptotic U266 cells (U266 cells): 18 % of residual cells
double-negative living cells (NCI cells [3]; at 18 hours): only very few
apoptosis (annexin-positive, PI-negative apoptotic cells) (NCI cells [3]; time period of 48 hours): rapidly induced apoptosis
mean decline in cell viability [4]: 52.5 ± 17.3%
percentage of trypan blue negative cells (LP1 cells [5]): 81 ± 6.8%
percentage of trypan blue negative cells (OPM2): 56 ± 11%
percentage of trypan blue negative cells (NCI): 15 ± 7.2%
Efficiency for treating multiple myeloma and reduced side-effects [6]: verified
plasma cell differentiation induced by the mitogen [7]: only slightly inhibited
myeloid cells (CD38^low, CD15 +) positive for the apoptosis marker [8, 14]: less than 1%
CD15+ myelo-monocytic cell percentages versus controls ([8]; day 5, 10^-6 mol/L): similar
plasma cells (CD38^higt +) expressing annexin V [9, 14]: 12%
percent CD38-high plasma cells among viable cells at 1 µM ([9]; Homo sapiens, 120 h, read-out: CD38^higt positive cells among viable cells (propidium iodide negative)): 7.8%
IC50 (LP1 cells [10]; Homo sapiens, LP-1, LP1 cells, growth inhibition): ~1000 nM
time-dependent inhibition of growth (LP1 cells [10]; LPI cells): significant but less important inhibition of growth
time-dependent inhibition of growth (NCI cells [11]): marked time-dependent inhibition of growth
IC50 (NCI cells [11]; Homo sapiens, 72 hours, cell number and thymidine incorporation, read-out: 50% growth inhibitory concentration (IC50) (converted)): 300 nM
IC50 (U266; Homo sapiens, U-266, growth inhibition): ~1000 nM
time-dependent inhibition of growth (U266): significant but less important inhibition of growth
time-dependent inhibition of growth (OPM2 cells): marked time-dependent inhibition of growth
IC50 (OPM2 cells; Homo sapiens, OPM-2, growth inhibition): ~100 nM
IC50 [12]: ~100 nM
active concentrations (myeloma cells): 10^-6 to 10^-8 mol/L
DNA fragmentation (NCI cells [13]): typical DNA ladders
